Reference: paper PMC8205226, “HIV-1 Integrase Inhibitors with Modifications That Affect Their Potencies against Drug Resistant Integrase Mutants” (ACS Infectious Diseases, 2021)
Read-outs that look alike come from different tables or passages of the source.

Experiments:
HIV-1 IN mutant Y143H = assay: single-round infectivity assay, Y143H IN mutant; format: cell-based
Protocol: (§1) Figure 4 Mutations in the β5-α3 loop affect the antiviral potencies of the new compounds. The EC50 values were determined using a vector that carries the IN mutant in a single round infection assay. […] Error bars represent the standard deviations of independent experiments, n = 4, performed in triplicate.
(§2) WT and mutant HIV-1 viral vectors were used in single-round infectivity assays to determine the antiviral potencies (EC50 values) of the compounds and the effects of the mutants on the EC50 values as previously described.[30],[54] Single round infectivity measurements were determined as done previously.[38]
(§3) The vector pNLNgoMIVR-ΔENV.LUC has been described previously.[26] To produce the new IN mutants used in this study, the IN open reading frame was removed from pNLNgoMIVR-ΔENV.LUC by digestion with KpnI and SalI, and the resulting fragment was inserted between the KpnI and SalI sites of pBluescript KS+. Using that construct as the wild-type template, we prepared the following HIV-1 IN mutants using the QuikChange II XL site directed mutagenesis kit (Agilent Technologies, Santa Clara, CA) protocol: N117A, N117H, P142A, P142H, P142S, Y143C, Y143H, S230R, R231G, and R231K. The following sense oligonucleotides were used with matching cognate antisense oligonucleotides (not shown) (Integrated DNA Technologies, Coralville, IA) in the mutagenesis: N117A, 5′-[…]-3′; N117H, 5′-[…]-3′; P142A, 5′-[…]-3′; P142H, 5′-[…]-3′; P142S, 5′-[…]-3′; Y143C, 5′- […]-3′; Y143H, 5′-[…]-3′; S230R, 5′- […]-3′; R231G, 5′-[…]-3′; R231K, 5′-[…]-3′.

HIV-1 IN mutant P142H = assay: single-round infectivity assay, P142H IN mutant; format: cell-based
Protocol: (§4) The EC50 values were determined using a vector that carries the IN mutant in a single round infection assay. […] Error bars represent the standard deviations of independent experiments, n = 4, performed in triplicate.
Single round infectivity measurements were determined as done previously.[38]
as §3

HIV-1 IN mutant S119R = assay: single-round infectivity assay, S119R IN mutant; format: cell-based
Protocol: as §4, §2, §3

[1] = system: HIV-1 IN double mutant G140S/Q148H; details: single round infection; previously reported; cited from earlier work
WT HIV-1 = details: vector carrying WT HIV-1 IN, single round infection; previously reported; cited from earlier work
HIV-1 IN mutant N117A = assay: single-round infectivity assay, N117A IN mutant; format: cell-based
Protocol: as §4, §2, §3

HIV-1 IN mutant Y143R = assay: single-round infectivity assay, Y143R IN mutant; format: cell-based; details: EC50 compound / EC50 DTG
Protocol: (§5) Figure 2 Antiviral activities of the new compounds against RAL-resistant mutants. The EC50 values were determined using a vector that carries WT HIV-1 IN and the RAL-resistant mutants in a single round infection assay. […] Error bars represent the standard deviations of independent experiments, n = 4, performed in triplicate. The graph has a maximum value of 550 nM.
as §2, §3

HIV-1 IN mutant P142A = assay: single-round infectivity assay, P142A IN mutant; format: cell-based
Protocol: as §1, §2, §3

HIV-1 IN mutant R231G = assay: single-round infectivity assay, R231G IN mutant; format: cell-based
Protocol: as §4, with “Figure 5 Antiviral potencies of the new compounds against IN with mutations in the […]. The” for “The”
as §2, §3

[2] = system: HIV-1 IN double mutant G140S/Q148H; assay: single-round infectivity assay, G140S/Q148H IN double mutant; format: cell-based; details: EC50 compound / EC50 DTG
Protocol: as §5, §2, §3

HIV-1 IN mutant N155H = assay: single-round infectivity assay, N155H IN mutant; format: cell-based; details: EC50 compound / EC50 DTG
Protocol: as §5, §2, §3

HIV-1 IN mutant R231K = assay: single-round infectivity assay, R231K IN mutant; format: cell-based
Protocol: as §4, with “Figure 5 Antiviral potencies of the new compounds against IN with mutations in the […]. The” for “The”
as §2, §3

HIV-1 IN mutant G118R [3] = assay: single-round infectivity assay, G118R IN mutant; format: cell-based
Protocol: as §4, §2, §3

HIV-1 IN mutant S230R = assay: single-round infectivity assay, S230R IN mutant; format: cell-based
Protocol: as §4, with “Figure 5 Antiviral potencies of the new compounds against IN with mutations in the […]. The” for “The”
as §2, §3

HIV-1 IN mutant N117H = assay: single-round infectivity assay, N117H IN mutant; format: cell-based
Protocol: as §4, §2, §3

HIV-1 IN mutant P142S = assay: single-round infectivity assay, P142S IN mutant; format: cell-based
Protocol: as §1, §2, §3

HIV-1 IN mutant Y143C = assay: single-round infectivity assay, Y143C IN mutant; format: cell-based
Protocol: as §1, §2, §3

HIV-1 IN mutant G118R [4] = details: single round infection; previously shown; cited from earlier work
[5] = fold change in EC50, IN mutant versus WT HIV-1

In the case of `Nc1c(C(=O)NCc2ccc(F)cc2F)c(=O)n(O)c2ncc(CCS(=O)(=O)c3ccccc3)cc12` [4f], the “ratio of the EC50s (our compound relative to DTG) against Y143H” value (HIV-1 IN mutant Y143H; EC50 compound / EC50 DTG) is reported as 1.0, the EC50 (HIV-1 IN mutant Y143H; Human immunodeficiency virus 1, read-out: EC50 values Y143H, single round infection, n = 4) is reported as 2.3 ± 0.1 nM and the “FC Y143H” value (HIV-1 IN mutant Y143H; [5]) is reported as 1.2. The EC50 (HIV-1 IN mutant Y143H; read-out: EC50 values Y143H, single round infection, n = 4) was under 3 nM, the “ratio of the EC50s (our compound relative to DTG) against P142H” value (HIV-1 IN mutant P142H; EC50 compound / EC50 DTG) was 0.6 and the EC50 (HIV-1 IN mutant P142H; Human immunodeficiency virus 1, read-out: EC50 values P142H) was 1.7 ± 0.2 nM. The “FC P142H” value (HIV-1 IN mutant P142H; [5]) was 0.9, the “ratio of the EC50s (our compound relative to DTG) against S119R” value (HIV-1 IN mutant S119R; EC50 compound / EC50 DTG) was 1.1 and the EC50 (HIV-1 IN mutant S119R; Human immunodeficiency virus 1, read-out: EC50 values S119R) was 2.6 ± 0.4 nM. The “FC S119R” value (HIV-1 IN mutant S119R; [5]) was 1.3, the EC50 [1] was 5.2 ± 0.3 nM and the EC50 (WT HIV-1) was 2 ± 0.1 nM. For the same compound, the EC50 (HIV-1 IN mutant N117A; Human immunodeficiency virus 1, read-out: EC50 values N117A) was 0.8 nM, the “FC N117A” value (HIV-1 IN mutant N117A; [5]) was 0.4 and the “ratio of the EC50s (our compound relative to DTG) against Y143R” value (HIV-1 IN mutant Y143R) was 0.1. The “ratio of the EC50s (our compound relative to DTG) against P142A” value (HIV-1 IN mutant P142A; EC50 compound / EC50 DTG) was 1.1, the EC50 (HIV-1 IN mutant P142A; Human immunodeficiency virus 1, read-out: EC50 values P142A) was 2.8 ± 0.1 nM and the “FC P142A” value (HIV-1 IN mutant P142A; [5]) was 1.4. The “ratio of the EC50s (our compound relative to DTG) against R231G” value (HIV-1 IN mutant R231G; EC50 compound / EC50 DTG) was 1.4, the EC50 (HIV-1 IN mutant R231G; Human immunodeficiency virus 1, read-out: EC50 values R231G) was 2 ± 0.2 nM and the “FC R231G” value (HIV-1 IN mutant R231G; [5]) was 1.0. For the same compound, the “ratio of the EC50s (our compound relative to DTG) against G140S/Q148H” value [2] was 0.9, the “ratio of the EC50s (our compound relative to DTG) against N155H” value (HIV-1 IN mutant N155H) was 0.6 and the “ratio of the EC50s (our compound relative to DTG) against R231K” value (HIV-1 IN mutant R231K; EC50 compound / EC50 DTG) was 0.8. For the same compound, the EC50 (HIV-1 IN mutant R231K; Human immunodeficiency virus 1, read-out: EC50 values R231K, single round infection, n = 4) was 3.3 ± 0.2 nM, the EC50 (HIV-1 IN mutant R231K; read-out: EC50 values R231K, single round infection, n = 4) was under 5 nM and the “ratio of the EC50s (our compound relative to DTG) against G118R” value (HIV-1 IN mutant G118R [3]; EC50 compound / EC50 DTG) was 0.9. The “FC G118R” value (HIV-1 IN mutant G118R [3]; [5]) was 5.7, the “ratio of the EC50s (our compound relative to DTG) against S230R” value (HIV-1 IN mutant S230R; EC50 compound / EC50 DTG) was 1.0 and the EC50 (HIV-1 IN mutant S230R; Human immunodeficiency virus 1, read-out: EC50 values S230R) was 4.8 ± 0.3 nM. The “FC S230R” value (HIV-1 IN mutant S230R; [5]) was 2.4, the “ratio of the EC50s (our compound relative to DTG) against N117H” value (HIV-1 IN mutant N117H; EC50 compound / EC50 DTG) was 1.1 and the EC50 (HIV-1 IN mutant N117H; Human immunodeficiency virus 1, read-out: EC50 values N117H) was 2.7 nM. The “FC N117H” value (HIV-1 IN mutant N117H; [5]) was 1.4, the “ratio of the EC50s (our compound relative to DTG) against P142S” value (HIV-1 IN mutant P142S; EC50 compound / EC50 DTG) was 0.7 and the EC50 (HIV-1 IN mutant P142S; Human immunodeficiency virus 1, read-out: EC50 values P142S) was 1.5 ± 0.3 nM. For the same compound, the “FC P142S” value (HIV-1 IN mutant P142S; [5]) was 0.8, the “ratio of the EC50s (our compound relative to DTG) against Y143C” value (HIV-1 IN mutant Y143C; EC50 compound / EC50 DTG) was 1.2 and the EC50 (HIV-1 IN mutant Y143C; Human immunodeficiency virus 1, read-out: EC50 values Y143C, single round infection, n = 4) was 1.7 ± 0.4 nM. For the same compound, the “FC Y143C” value (HIV-1 IN mutant Y143C; [5]) was 0.9, the EC50 (HIV-1 IN mutant Y143C; read-out: EC50 values Y143C, single round infection, n = 4) was under 3 nM and the EC50 (HIV-1 IN mutant G118R [4]) was 11.4 ± 3.5 nM.
